Measured values as given in patent publication US7655392B2, “Quenching methods for red blood cell inactivation process” (priority 2004, dated 2010).
Like-named read-outs stand apart in the source and are kept apart here.

Key:
red blood cells = details: sample 6: 0.2 mM GSH+2 eq base, no PIC-1
Source text: Methods for determining ATP, 2,3-DPG, glucose, hemoglobin, hemolysis, and potassium are available in the art. See for example, Davey et al., Transfusion, 32:525-528 (1992), the disclosure of which is incorporated herein. Methods for determining red blood cell function are also described in Greenwalt et al., Vox Sang, 58:94-99 (1990); Hogman et al., Vox Sang, 65:271-278 (1993); and Beutler et al., Blood, Vol. 59 (1982) the disclosures of which are incorporated herein by reference. For example, intracellular ATP and intracellular 2,3-DPG are measured using a Sigma ATP kit or 2,3-DPG kit (Sigma, St. Louis, Mo.). The ATP kit is used following Sigma procedure No. 366-UV, the disclosure of which is hereby incorporated by reference. […] The extracellular pH is measured by centrifuging the cells at 4° C. for 15 minutes at 12,000×g and removing the supernatant, for which the pH is measured using a standard pH meter at room temperature (e.g. Beckman, Epoxy Calomel electrode). For the intracellular pH, the remaining pellet is capped in the centrifuge tube and stored at about −80° C. for at least 2 hours. This is then lysed by the addition of deionized water. […] Measurements can be made shortly after treatment and as a function of post treatment storage, for example storage for up to 42 days.
Full units of red cell concentrates (Interstate Blood Bank, Inc., Memphis, Tenn.) were leukoreduced. A volume of 200 mL of this RCC (80% hematocrit) was mixed with 94 mL of Erythrosol or 100 mL of Adsol (Baxter Healthcare Corp., Deerfield, Ill.) as control (unit 1). A volume of 20 mL 8% dextrose was used to dissolve PIC-1 (mg) and acid glutathione (mg) and added to one unit to provide 0.2 mM PIC-1 and 2 mM glutathione (unit 2). […] For the glutathione, 1.2 mL of 10 N NaOH was added (2 equivalents). The PIC-1 was mixed with the unit, followed 1 minute later (unit 3) or 5 minutes later (unit 4) by glutathione. For unit 5, neutralized glutathione was mixed first, followed 10 minutes later by the PIC-1. […] All units were mixed by grasping the ends of the blood bag and mixing in a FIG. 8 motion 30 times. These were then incubated at room temperature for 20 hours total. A compound adsorption device (CAD), comprising a polymeric resin contained within a mesh pouch, was used for all but the control sample. This device is intended to remove residual PIC-1, PIC-1 breakdown products, and glutathione from the samples. Samples were incubated for 8 hours, then transferred to a second blood bag containing the CAD and incubated for an additional 12 hours. Following the room temperature incubation, samples were transferred to a refrigerator (4° C.) and stored up to 43 days. Aliquots were removed from each unit 12 hours and 20 hours post mixing, and every week thereafter. Aliquots were analyzed for total hemoglobin, pH, intracellular ATP, plasma hemoglobin, potassium, extracellular glucose and extracellular lactate.

Serratia marcescens = assay type: cell-based; details: no PIC-1, 20 mM glutathione

For N[C@@H](CCC(=O)N[C@@H](CS)C(=O)NCC(=O)O)C(=O)O [glutathione, γ-L-glutamyl-L-cysteinyl-glycine], the “Percent Hemolysis” value (red blood cells; 16B day 0) was 0.15%, the “Percent Hemolysis” value (red blood cells; 16B day 0.5) was 0.19% and the “Percent Hemolysis” value (red blood cells; 16B day 0.8) was 0.51%. The “Percent Hemolysis” value (red blood cells; 16B day 7) was 0.58%, the “Percent Hemolysis” value (red blood cells; 16B day 14) was 0.61% and the “Percent Hemolysis” value (red blood cells; 16B day 22) was 0.60%. For the same compound, the “Percent Hemolysis” value (red blood cells; 16B day 28) was 0.71%, the “Percent Hemolysis” value (red blood cells; 16B day 35) was 0.70% and the “Percent Hemolysis” value (red blood cells; 16B day 43) was 0.75%. For the same compound, the “Log S. marcescens reduction” value (Serratia marcescens; 0 eq base) was 0.02 Log, the “Log S. marcescens titer” value (Serratia marcescens; 0 eq base) was 7.0 Log and the “Log S. marcescens reduction” value (Serratia marcescens; 2 eq base) was 0.31 Log. For the same compound, the “Log S. marcescens titer” value (Serratia marcescens; 2 eq base) was 7.4 Log.
